The subject of one experiment is c5-HT2B. Particulars: literature value; cited from earlier work.
A further experiment relates to dogs with Stage B2 MMVD. As to conditions: cited from earlier work.
The target in another experiment is T1, hERG (Homo sapiens, UniProt Q12809).
T1 construct: stably transfected with full length hERG cDNA; expressed in transfected cells; host or cells: HEK293
As to the kind of experiment: hERG in-vitro assay, IonWorks Barracuda population patch clamp. It is filed as cell-based. As to conditions: hERG/HEK293 cells; hERG current block, 5 minutes exposure. The method, then: Stock solutions of compounds of the invention and positive control (cisapride; 0.001-3 μM) were prepared in DMSO. Stock solutions were diluted in a HEPES-buffered physiological saline solution. Test and control solutions contained 0.3% DMSO. Human hERG/HEK293 renal epithelial cells stably transfected with full length hERG cDNA were cultured in Dulbecco's Modified Eagle Medium/Nutrient Mixture F-12 (D-MEM/F-12) supplemented with 10% fetal bovine serum, 100 U/mL penicillin G sodium, 100 μg/mL streptomycin sulfate and 500 μg/mL G418. Before testing, cells in culture dishes were rinsed with Hank's Balanced Salt Solution (HBSS) and detached with accutase. Immediately before use in the IonWorks Barracuda™ system, the cells were washed with buffered physiological saline solution (HB-PS) buffer to remove the accutase and re-suspended in 5 mL of HB-PS. The test article effects were evaluated using IonWorks Barracuda™ systems (Molecular Devices Corporation, Union City, CA). HEPES-buffered intracellular solution for whole cell recordings was loaded into the intracellular compartment of the Population Patch Clamp™ (PPC) planar electrode.
Extracellular buffer (HB-PS) was loaded into PPC planar electrode plate wells (11 μL/well). The cell suspension was pipetted into the wells of the PPC planar electrode (9 μL/well). After establishment of a whole-cell configuration (the perforated patch), membrane currents were recorded using patch clamp amplifier in the IonWorks Barracuda™ system. The current recordings were performed one (1) time before test article application to the cells (baseline) and one (1) time after application of the test article. Test article concentrations were applied to naïve cells. Each application consisted of addition of 20 μL of 2× concentrated test article solution to the total 40 μL of final volume of the extracellular well of the PPC plate. Duration of exposure to each compound concentration was five (5) minutes. hERG current was elicited using a pulse pattern with fixed amplitudes (the first conditioning pre-pulse to 10 mV for 60 second, the second conditioning pre-pulse: −90 mV for 20 ms; the test pulse: +40 mV for 100 ms) from a holding potential of 0 mV (‘zero holding’ procedure). hERG current was measured as a difference between the peak current at 1 ms and at the end of test step to +40 mV. Data acquisition and analyses were performed using the IonWorks Barracuda™ system operation software (version 2.0.2). The decrease in current amplitude after test article application was used to calculate the percent block relative to control. Results for each test article concentration (n≥1) were averaged; the mean and standard deviation values were calculated and used to generate dose-response curves.

The target in the next experiment is T2, canine 5-HT2B receptor (Canis lupus familiaris, UniProt Q50DZ8).
T2 construct: expressed in transfected cells; host or cells: CHO-K1
T2 sequence (Q50DZ8 1-434): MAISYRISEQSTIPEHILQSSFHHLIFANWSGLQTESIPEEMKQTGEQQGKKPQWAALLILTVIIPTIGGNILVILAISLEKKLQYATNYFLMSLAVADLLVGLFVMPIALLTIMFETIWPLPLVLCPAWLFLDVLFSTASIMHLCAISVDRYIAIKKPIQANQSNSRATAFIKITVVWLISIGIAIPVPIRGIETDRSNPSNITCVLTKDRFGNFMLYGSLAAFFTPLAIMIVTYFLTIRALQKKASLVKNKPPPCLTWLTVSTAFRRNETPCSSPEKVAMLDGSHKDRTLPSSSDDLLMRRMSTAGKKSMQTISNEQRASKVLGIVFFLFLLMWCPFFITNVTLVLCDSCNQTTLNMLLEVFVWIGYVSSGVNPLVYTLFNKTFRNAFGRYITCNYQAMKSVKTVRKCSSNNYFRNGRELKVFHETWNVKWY
Briefly: Canine 5-HT2B (c5-HT2B) in-vitro assay, FLIPR calcium response. As to conditions: CHO-K1 cells stably expressing canine 5-HT2B receptor; inhibition of EC80 serotonin calcium response. It is filed as cell-based. The method, then: CHO-K1 cells stably expressing the canine 5-HT2B receptor were seeded at 20,000 cells per well in 20 μl culture media (DMEM with GlutaMAX™ high glucose+5% dialyzed FBS+10 mM HEPES+1×MEM Non-Essential Amino Acids of a 384-well black plate with clear bottom for at least 18 hours at 37° C. and 5% CO2. The cell plate was loaded with 20 μl/well of the FLIPR® Calcium 5 Assay kit prepared in HBSS containing calcium and magnesium supplemented with 20 mM HEPES and 5 mM Probenecid at pH 7.4 and incubated at 37° C. and 5% CO2 for 30 minutes and then an additional 30 minutes at room temperature. The intracellular calcium response was measured using the FLIPR Tetra® instrument measuring the kinetic response of the Calcium 5 dye at an excitation wavelength of 470-495 nm and emission wavelength of 515-575 nm at room temperature. The cells were initially challenged with a 5× concentration of the antagonist (10 μl/well) after an initial baseline recording and the calcium response was recorded for almost 2 minutes. After the completion of the initial antagonist challenge, the cell plate was incubated at room temperature in the FLIPR Tetra® instrument for 10 minutes. Finally, a second kinetic assay was performed after the 10 minute incubation at room temperature to measure the inhibitory response of the EC80 concentration of serotonin (15 μl/well) after an initial baseline recording. The IC50 concentration was determined for each antagonist tested.

As a reminder, the IC50 is the midpoint of a concentration-inhibition curve.

T1 sequence (Q12809 whole entry): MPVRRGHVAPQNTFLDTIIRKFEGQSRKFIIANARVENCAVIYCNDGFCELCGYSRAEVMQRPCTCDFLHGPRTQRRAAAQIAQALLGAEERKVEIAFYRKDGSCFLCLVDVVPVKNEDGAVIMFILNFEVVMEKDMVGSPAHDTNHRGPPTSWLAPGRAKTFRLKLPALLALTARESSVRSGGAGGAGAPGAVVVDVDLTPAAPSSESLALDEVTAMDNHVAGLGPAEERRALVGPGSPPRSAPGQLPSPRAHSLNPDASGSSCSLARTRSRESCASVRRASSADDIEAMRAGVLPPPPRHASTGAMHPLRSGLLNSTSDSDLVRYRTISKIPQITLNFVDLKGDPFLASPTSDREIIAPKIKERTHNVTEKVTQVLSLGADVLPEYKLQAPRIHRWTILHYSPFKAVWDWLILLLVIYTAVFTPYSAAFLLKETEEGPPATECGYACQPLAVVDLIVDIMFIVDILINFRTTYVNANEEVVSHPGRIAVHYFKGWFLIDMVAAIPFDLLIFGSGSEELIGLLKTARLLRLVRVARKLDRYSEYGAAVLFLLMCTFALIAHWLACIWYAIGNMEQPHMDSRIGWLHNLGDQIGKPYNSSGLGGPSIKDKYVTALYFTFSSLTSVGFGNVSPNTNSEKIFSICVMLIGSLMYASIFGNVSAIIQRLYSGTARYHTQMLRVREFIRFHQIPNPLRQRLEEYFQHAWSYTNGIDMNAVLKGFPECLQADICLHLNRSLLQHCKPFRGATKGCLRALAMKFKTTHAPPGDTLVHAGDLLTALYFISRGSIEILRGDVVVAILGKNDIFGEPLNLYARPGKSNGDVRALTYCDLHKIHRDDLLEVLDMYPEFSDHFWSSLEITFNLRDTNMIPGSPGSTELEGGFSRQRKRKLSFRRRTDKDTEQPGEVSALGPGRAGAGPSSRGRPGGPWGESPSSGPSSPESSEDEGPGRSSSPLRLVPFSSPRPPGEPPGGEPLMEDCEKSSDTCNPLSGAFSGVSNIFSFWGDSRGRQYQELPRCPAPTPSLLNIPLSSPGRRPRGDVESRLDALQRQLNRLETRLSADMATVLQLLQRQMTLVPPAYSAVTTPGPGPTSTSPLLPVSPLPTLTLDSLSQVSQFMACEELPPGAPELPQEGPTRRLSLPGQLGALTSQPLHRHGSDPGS

As for `O=C(c1ccc(-c2ccc(OC(F)(F)F)cc2)cc1)N1CCC(c2nc3ccccc3[nH]2)CC1` [CA-2, (4-(1H-benzo[d]imidazol-2-yl)piperidin-1-yl)(4′-(trifluoromethoxy)-[1,1′-biphenyl]-4-yl)methanone], the IC50 in the experiment on c5-HT2B is 95 nM.

Turning to `COc1ccc(-c2nc3ccc(C4=NNC(=O)CC4C)cc3[nH]2)cc1` (centres unmarked) [pimobendan], the “time longer to develop CHF or die from MMVD than dogs receiving placebo” value in the experiment on dogs with Stage B2 MMVD (pimobendan 0.2 or 0.3 mg/kg twice a day) was 462 days. Moreover, the “delay in prolonging preclinical stage” value in the experiment on dogs with Stage B2 MMVD (versus placebo) is given as 60%.

In the case of `N#Cc1ccc(-c2ccc(C(=O)N3CCC(c4ncc[nH]4)CC3)cc2)cc1` [CA-5, 4′-(4-(1H-imidazol-2-yl)piperidine-1-carbonyl)-[1,1′-biphenyl]-4-carbonitrile, reference compound], the half-maximal inhibitory concentration (IC50) came out at 54 nM on hERG and 453 nM at canine 5-HT2B receptor.

Turning to `O=C(c1ccc2c(-c3cccc4[nH]ccc34)c[nH]c2c1)N1CCC(c2ncc[nH]2)CC1` [Example 28, (4-(1H-imidazol-2-yl)piperidin-1-yl)(1H,1′H-[3,4′-biindol]-6-yl)methanone], the IC50 against hERG was greater than 30000 nM; on canine 5-HT2B receptor it was 1.2 nM.

As to `O=C(c1ccc(-c2ccc(C(F)F)cc2)cc1)N1CCC(Cc2ncc[nH]2)CC1` [Example 25, (4-((1H-imidazol-2-yl)methyl)piperidin-1-yl)(4′-(difluoromethyl)-[1,1′-biphenyl]-4-yl)methanone], the IC50 is 3400 nM at hERG and 0.46 nM at canine 5-HT2B receptor.

For the compound `Cc1cnc(C2CCN(C(=O)c3ccc4c(-c5ccccc5)c[nH]c4c3)CC2)[nH]1` [Example 31, (4-(5-methyl-1H-imidazol-2-yl)piperidin-1-yl)(3-phenyl-1H-indol-6-yl)methanone], the IC50 against hERG was 19600 nM; on canine 5-HT2B receptor, 4.5 nM.

Turning to `O=C(c1ccc(-c2ccccc2)cc1)N1CCC(c2ncc[nH]2)CC1` [CA-3, (4-(1H-imidazol-2-yl)piperidin-1-yl)([1,1′-biphenyl]-4-yl)methanone, reference compound], the IC50 on hERG was 611 nM; at canine 5-HT2B receptor, 0.64 nM.

Turning to `O=C(c1ccc(-c2ccccc2)nc1)N1CCC(c2ncc[nH]2)CC1` [Example 11, (4-(1H-imidazol-2-yl)piperidin-1-yl)(6-phenylpyridin-3-yl)methanone], the IC50 against hERG turned out to be 3280 nM; at canine 5-HT2B receptor, 4.5 nM.

Regarding `Cc1cnc(C2CCN(C(=O)c3ccc(-c4ccc5cc[nH]c5c4)cc3)CC2)[nH]1` [Example 27, (4-(1H-indol-6-yl)phenyl)(4-(5-methyl-1H-imidazol-2-yl)piperidin-1-yl)methanone], the IC50 on hERG was found to be 9280 nM; at canine 5-HT2B receptor it was 1.1 nM.

On to `O=C(c1ccc2c(c1)[nH]c1ccccc12)N1CCC(c2ncc[nH]2)CC1` [Example 14, (4-(1H-imidazol-2-yl)piperidin-1-yl)(9H-carbazol-2-yl)methanone], for which the IC50 on hERG amounted to 5720 nM; at canine 5-HT2B receptor, 1.3 nM.

With `O=C(c1ccc(-c2cccc(C(F)(F)F)c2)cc1)N1CCC(c2ncc[nH]2)CC1` [Example 19, (4-(1H-imidazol-2-yl)piperidin-1-yl)(3′-(trifluoromethyl)-[1,1′-biphenyl]-4-yl)methanone], the IC50 came out at 1470 nM on hERG and 0.89 nM on canine 5-HT2B receptor.

As for `O=C(c1ccc(-c2ccc(F)cc2)cc1)N1CCC(Cc2ncc[nH]2)CC1` [CA-1, (4-((1H-imidazol-2-yl)methyl)piperidin-1-yl)(4′-fluoro-[1,1′-biphenyl]-4-yl)methanone, reference compound], the IC50 against hERG was determined as 546 nM; on canine 5-HT2B receptor, 0.3 nM.

In the case of `O=C(c1ccc2c(-c3c[nH]c4ccccc34)c[nH]c2c1)N1CCC(c2ncc[nH]2)CC1` [Example 29, [4-(1H-imidazol-2-yl)-1-piperidyl]-[3-(1H-indol-3-yl)-1H-indol-6-yl]methanone], the IC50 at hERG stood at 27100 nM; at canine 5-HT2B receptor, 1.4 nM.

With `O=C(c1ccc(-c2n[nH]c3ccccc23)cc1)N1CCC(c2ncc[nH]2)CC1` [Example 24, (4-(1H-imidazol-2-yl)piperidin-1-yl)(4-(1H-indazol-3-yl)phenyl)methanone], the IC50 on hERG worked out at 33600 nM; on canine 5-HT2B receptor, 0.33 nM.

Turning to `O=C(c1ccc(-c2ccc(F)cc2)cc1)N1CCC(c2ncc[nH]2)CC1` [CA-4, (4-(1H-imidazol-2-yl)piperidin-1-yl)(4′-fluoro-[1,1′-biphenyl]-4-yl)methanone, reference compound], the IC50 against hERG is less than 30 nM; on canine 5-HT2B receptor, 0.08 nM.

Consider `O=C(c1ccc(-c2cc3ccccc3[nH]2)cc1)N1CCC(c2ncc[nH]2)CC1` [Example 30, (4-(1H-imidazol-2-yl)piperidin-1-yl)(4-(1H-indol-2-yl)phenyl)methanone], for which the IC50 came to 11000 nM on hERG and 1.95 nM on canine 5-HT2B receptor.

In the case of `CS(=O)(=O)c1cccc(-c2ccc(C(=O)N3CCC(c4ncc[nH]4)CC3)cc2)c1` [Example 2, (4-(1H-imidazol-2-yl)piperidin-1-yl)(3′-(methylsulfonyl)-[1,1′-biphenyl]-4-yl)methanone], the IC50 on hERG stood at 72300 nM; at canine 5-HT2B receptor it was 52.3 nM.

Turning to `O=C(c1ccc(-c2ccc(C(F)(F)F)cc2)cc1)N1CCC(Nc2ncc[nH]2)CC1` [Example 7, (4-((1H-imidazol-2-yl)amino)piperidin-1-yl)(4′-(trifluoromethyl)-[1,1′-biphenyl]-4-yl)methanone], the IC50 against hERG stood at 2500 nM; at canine 5-HT2B receptor, 30.2 nM.

The record behind these values is US12240827B2, “Serotonin 5-HT2B inhibitory compounds” (Zoetis Services LLC, priority 2019, dated 2025).
